Blank lines part the entries; values can stand above or below the molecule they belong to. Square brackets hold non-standard residues; d marks the D form. Ends that are not written are not given here. Peptide text beside a SMILES is read from it.
Assays:
Format in all cases: cell-based
[1] = tested on: P. aeruginosa lipopolysaccharide (LPS)-induced secretion of tumor necrosis factor (TNF) in Raw (264.7) Cells; test: Neutralization of LPS-induced TNF secretion; details: 1 μg/ml LPS
Procedure: Anti-inflammatory activity is based on the determination of cytokine stimulation of major inflammatory (e.g. TNF) or anti-inflammatory (e.g., IL-10) cytokines. For in vitro studies, TNF is measured using culture medium from LPS-stimulated macrophage cultures in the presence or absence of peptide treatment. For in vivo studies, cytokine levels in bronchoalveolar lavage (BAL) fluid were quantified using the mouse cytokine multiplex panel assay (Milliplex; Millipore, Billerica, Mass.). The expressions of cytokines were analyzed using the Luminex assay system, based on manufacturer's instructions and our previous publication. Standard recombinant protein solution was used to generate a standard curve for each analyzed protein. Absolute cytokine concentrations were calculated from the standard curve for each cytokine.
A high dosage (1 μg/ml) of LPS was used to stimulate the TNF secretion in raw cells.

[2] = tested on: Pseudomonas aeruginosa MDR clinical isolates; details: MDR clinical isolates, 18 h
Procedure: (§1) The bactericidal activities were examined using standard bacterial culture media (MHB) without the inclusion of human blood.
(§2) Tables 3 and 4 provide the MIC data for the tested AMPs against a variety of infectious species. The following strains were tested: Enterococcus faecium MDR clinical isolates Ef 25153 and Ef 26125; methicillin-resistant Staphylococcus aureus (MRSA) clinical isolates USA300 and 150-10; Klebsiella pneumonia MDR clinical isolates C3, C5, A5, D7 and E6; and Pseudomonas aeruginosa MDR clinical isolates PA 82-8 and PA 129-5. […] Table 5 provides the data for the D-amino acid substituted AMPs and their bactericidal activities against various Klebsiella pneumonia multi-drug resistant (MDR) clinical isolates. All odd number Kp bacteria (isolated prior to colistin treatment; colistin sensitive) are paired with the corresponding even number Kp bacteria (isolated after colistin treatment; colistin resistant) from the same patient. O.D. readings represent the bacterial growth with a background reading of about 0.049+/−0.003.

[3] = tested on: methicillin-resistant Staphylococcus aureus (MRSA) clinical isolates; details: methicillin-resistant clinical isolates, 18 h
Procedure: as §1, §2

[4] = tested on: Enterococcus faecium MDR clinical isolates; details: MDR clinical isolates, 18 h
Procedure: as §1, §2

[5] = tested on: Klebsiella pneumonia MDR clinical isolates; details: 18 h
Procedure: as §1, §2

[6] = tested on: Klebsiella pneumonia multi-drug resistant (MDR) clinical isolates; test: Bacterial growth (O.D. readings) of Kp isolates treated with D-amino acid substituted AMPs
Procedure: as §2

[7] = Kp strain 1 (colistin sensitive), background about 0.049
[8] = Kp strain 2 (colistin resistant), background about 0.049
[9] = Kp strain 3 (colistin sensitive)
[10] = Kp strain 4 (colistin resistant)
[11] = Kp strain 5 (colistin sensitive)
[12] = Kp strain 6 (colistin resistant)
[13] = Kp strain 7 (colistin sensitive)
[14] = Kp strain 8 (colistin resistant)
[15] = Kp strain 9 (colistin sensitive)
[16] = Kp strain 10 (colistin resistant)
[17] = Kp strain 11 (colistin sensitive)
[18] = Kp strain 12 (colistin resistant)
[19] = Kp strain 13 (colistin sensitive)
[20] = Kp strain 14 (colistin resistant)
[21] = Kp strain 15 (colistin sensitive)
[22] = Kp strain 16 (colistin resistant)
[23] = Kp strain 17 (colistin sensitive)
[24] = Kp strain 18 (colistin resistant)
[25] = Kp strain 19 (colistin sensitive)
[26] = Kp strain 20 (colistin resistant)
[27] = Kp strain 21 (colistin sensitive)
[28] = Kp strain 22 (colistin resistant)
[29] = Kp strain 23 (colistin sensitive)
[30] = Kp strain 24 (colistin resistant)

Molecule: ILKPGGGTSGGLLGGLLGKVTSVIPGLNNI [SEQ ID No. 1, reference compound]
neutralizing LPS-induced TNF secretion [1]: display neutralizing activities | MIC PA 82-8 [2]: >32 µM | MIC PA 129-5 [2]: >32 µM | MIC MRSA 150-10 [3]: >32 µM | MIC MRSA USA300 [3]: >32 µM | MIC Ef 25153 [4]: >32 µM | MIC Ef 26125 [4]: >32 µM | MIC A5 [5]: >32 µM | MIC C3 [5]: >32 µM | MIC C5 [5]: >32 µM | MIC D7 [5]: >32 µM | MIC E6 [5]: >32 µM

Molecule: LLGDFFRKSKEKIGKEFKRIVQRIKDFLRNLLPRTES [SEQ ID No. 25, reference compound]
neutralizing LPS-induced TNF secretion [1]: Do Not Neutralize | MIC PA 82-8 [2]: 32 µM | MIC PA 129-5 [2]: 16 µM | MIC MRSA 150-10 [3]: 32 µM | MIC MRSA USA300 [3]: >32 µM | MIC Ef 25153 [4]: <16 µM | MIC Ef 26125 [4]: <16 µM | MIC A5 [5]: >32 µM | MIC C3 [5]: 32 µM | MIC C5 [5]: >32 µM | MIC D7 [5]: <16 µM | MIC E6 [5]: <16 µM

MIC PA82 82-8 [2]: 4 µM | MIC PA 129-5 [2]: 4 µM | MIC MRSA 150-10 [3]: 4 µM | MIC MRSA USA300 [3]: <2 µM | MIC Ef 25153 [4]: <2 µM | MIC Ef 26125 [4]: <2 µM | MIC A5 [5]: >4 µM | MIC C3 [5]: <2 µM | MIC C5 [5]: 4 µM | MIC D7 [5]: <2 µM | MIC E6 [5]: <2 µM
Molecule: LKKWWKKVKGLLGGLLGKVKSVIK [SEQ ID No. 16]

Molecule: LKKWWKTSKGLLGGLLGKVTSVIK [SEQ ID No. 13]
neutralizing LPS-induced TNF secretion [1]: Display Neutralizing Activities | MIC PA82 82-8 [2]: 16 µM | MIC PA 129-5 [2]: <16 µM | MIC MRSA USA300 [3]: <8 µM | MIC Ef 25153 [4]: <16 µM | MIC Ef 26125 [4]: <8 µM | MIC A5 [5]: >16 µM | MIC C3 [5]: >16 µM | MIC C5 [5]: 16 µM | MIC D7 [5]: <8 µM | MIC E6 [5]: <8 µM

Molecule: GVKKKWKKKLGLKLWLKISGVVLG [SEQ ID No. 24, reference compound]
neutralizing LPS-induced TNF secretion [1]: Display Neutralizing Activities | MIC PA 82-8 [2]: >32 µM | MIC PA 129-5 [2]: <16 µM | MIC MRSA 150-10 [3]: >32 µM | MIC MRSA USA300 [3]: >32 µM | MIC Ef 25153 [4]: >32 µM | MIC Ef 26125 [4]: 16 µM | MIC A5 [5]: 32 µM | MIC C3 [5]: 32 µM

Molecule: CC(C)[C@H](NC(=O)[C@H](Cc1c[nH]c2ccccc12)NC(=O)[C@H](CCCNC(=N)N)NC(=O)[C@@H](N)CCCNC(=N)N)C(=O)N[C@@H](CCCNC(=N)N)C(=O)N[C@@H](CCCNC(=N)N)C(=O)N[C@@H](C(=O)N[C@@H](CCCNC(=N)N)C(=O)N[C@@H](CCCNC(=N)N)C(=O)N[C@@H](C(=O)N[C@@H](Cc1c[nH]c2ccccc12)C(=O)N[C@@H](CCCNC(=N)N)C(=O)N[C@@H](CCCNC(=N)N)C(=O)N[C@H](C(=O)N[C@@H](C(=O)N[C@@H](CCCNC(=N)N)C(=O)N[C@@H](C(=O)N[C@@H](C(=O)N[C@@H](CCCNC(=N)N)C(=O)N[C@@H](CCCNC(=N)N)C(=O)N[C@@H](Cc1c[nH]c2ccccc12)C(=O)N[C@@H](C(=O)N[C@@H](CCCNC(=N)N)C(=O)N[C@@H](CCCNC(=N)N)C(=O)O)C(C)C)C(C)C)C(C)C)C(C)C)C(C)C)C(C)C)C(C)C [SEQ ID No. 33] (H-RRWVRR[dV]RR[dV]WRRV[dV]R[dV][dV]RRW[dV]RR-OH; N-terminus and C-terminus assumed)
O.D. reading [6, 7]: 0.104 | O.D. reading [6, 8]: 0.108 | O.D. reading [6, 9]: 0.048 | O.D. reading [6, 10]: 0.047 | O.D. reading [6, 11]: 0.053 | O.D. reading [6, 12]: 0.12 | O.D. reading [6, 13]: 0.046 | O.D. reading [6, 14]: 0.056 | O.D. reading [6, 15]: 0.043 | O.D. reading [6, 16]: 0.131 | O.D. reading [6, 17]: 0.057 | O.D. reading [6, 18]: 0.066 | O.D. reading [6, 19]: 0.05 | O.D. reading [6, 20]: 0.089 | O.D. reading [6, 21]: 0.048 | O.D. reading [6, 22]: 0.054 | O.D. reading [6, 23]: 0.044 | O.D. reading [6, 24]: 0.048 | O.D. reading [6, 25]: 0.049 | O.D. reading [6, 26]: 0.05 | O.D. reading [6, 27]: 0.048 | O.D. reading [6, 28]: 0.05 | O.D. reading [6, 29]: 0.047 | O.D. reading [6, 30]: 0.076

Molecule: CC(C)[C@H](NC(=O)[C@H](Cc1c[nH]c2ccccc12)NC(=O)[C@H](CCCNC(=N)N)NC(=O)[C@@H](N)CCCNC(=N)N)C(=O)N[C@@H](CCCNC(=N)N)C(=O)N[C@@H](CCCNC(=N)N)C(=O)N[C@@H](C(=O)N[C@@H](CCCNC(=N)N)C(=O)N[C@@H](CCCNC(=N)N)C(=O)N[C@H](C(=O)N[C@@H](Cc1c[nH]c2ccccc12)C(=O)N[C@@H](CCCNC(=N)N)C(=O)N[C@@H](CCCNC(=N)N)C(=O)N[C@H](C(=O)N[C@@H](C(=O)N[C@@H](CCCNC(=N)N)C(=O)N[C@@H](C(=O)N[C@H](C(=O)N[C@@H](CCCNC(=N)N)C(=O)N[C@@H](CCCNC(=N)N)C(=O)N[C@@H](Cc1c[nH]c2ccccc12)C(=O)N[C@@H](C(=O)N[C@@H](CCCNC(=N)N)C(=O)N[C@@H](CCCNC(=N)N)C(=O)O)C(C)C)C(C)C)C(C)C)C(C)C)C(C)C)C(C)C)C(C)C [SEQ ID No. 32] (H-RRWVRR[dV]RRVWRRV[dV]R[dV]VRRW[dV]RR-OH; N-terminus and C-terminus assumed)
O.D. reading [6, 7]: 0.039 | O.D. reading [6, 8]: 0.044 | O.D. reading [6, 9]: 0.043 | O.D. reading [6, 10]: 0.042 | O.D. reading [6, 11]: 0.042 | O.D. reading [6, 12]: 0.107 | O.D. reading [6, 13]: 0.042 | O.D. reading [6, 14]: 0.04 | O.D. reading [6, 15]: 0.042 | O.D. reading [6, 16]: 0.048 | O.D. reading [6, 17]: 0.048 | O.D. reading [6, 18]: 0.05 | O.D. reading [6, 19]: 0.048 | O.D. reading [6, 20]: 0.047 | O.D. reading [6, 21]: 0.048 | O.D. reading [6, 22]: 0.045 | O.D. reading [6, 23]: 0.045 | O.D. reading [6, 24]: 0.047 | O.D. reading [6, 25]: 0.048 | O.D. reading [6, 26]: 0.049 | O.D. reading [6, 27]: 0.051 | O.D. reading [6, 28]: 0.048 | O.D. reading [6, 29]: 0.048 | O.D. reading [6, 30]: 0.11

MIC PA82 82-8 [2]: 4 µM | MIC PA 129-5 [2]: <2 µM | MIC MRSA 150-10 [3]: <2 µM | MIC MRSA USA300 [3]: <2 µM | MIC Ef 25153 [4]: <2 µM | MIC Ef 26125 [4]: <2 µM | MIC A5 [5]: >4 µM | MIC C3 [5]: <2 µM | MIC C5 [5]: 4 µM | MIC D7 [5]: <2 µM | MIC E6 [5]: <2 µM
Molecule: LKKWWKKVKGLLGGLLGKVKKVIK [SEQ ID No. 17]
